# In US20220096410A1, “PHARMACEUTICAL COMPOSITION FOR INTRAOCULAR OR ORAL ADMINISTRATION FOR TREATMENT OF RETINAL DISEASES” (FUSO PHARMACEUTICAL INDUSTRIES, LTD., priority 2019, published 2022):
# Assays:
# Type in all cases: in vivo, BALB/c mice
# [1] = test system: light irradiation model (atrophic AMD model mouse); test: Pharmacological test against AMD, light-induced AMD model mice, oral administration, ONL thickness
# Description: A test was performed using a light irradiation model, which is widely employed as an atrophic AMD model mouse, as a test model. Male BALB/c mice (4 weeks old) were purchased from Japan SLC, Inc., and allowed to acclimate for a week before being used for experiments. Laboratory animal chow (CLEA Rodent Diet CE-2, CREA JAPAN, INC.) was used as food, and tap water was freely consumed as drinking water. The animals were raised under light and dark cycles of every 12 hours. Also all animal experiments were conducted under the approval of the Kyushu University Animal Experiment Committee. To BALB/c mice, 1 mL/kg of 50 μM compound dissolved in PBS containing 10% polyethylene glycol (PEG) 300 was orally administered. Thirty (30) minutes later, one drop of […] (5 mg/mL tropicamide, 5 mg/mL phenylephrine hydrochloride; Santen Pharmaceutical Co., Ltd.) was applied to each eye as a mydriatic drug. The mice were irradiated with 8000 lux white light for 10 hours, then returned to under normal light and dark cycles, and raised for 6 days. On day 7, the animal was euthanized by cervical dislocation, and the eyeballs were removed (FIG. 1A). Frozen sections of 8 μm thickness were prepared by using the above-mentioned removed eyeballs, and subjected to hematoxylin eosin (HE) staining, and the thickness of the outer nuclear layer (ONL) was measured over 27 points every 180 μm (observation magnification: 60 times) (FIG. 1B). The preparation was air-dried for 1 hour, fixed with acetone at room temperature for 15 minutes, then immersed in 99.5% EtOH, 80% EtOH, 70% EtOH, and purified water in this order for 3 minutes each, and stained with hematoxylin for 10 minutes. Then, it was washed with running water for 10 minutes, soaked in warm water for 1 minute, and stained with eosin for 1.5 minutes. After washing with purified water, it was immersed in 70% EtOH, 80% EtOH, and 99.5% EtOH in this order for 3 minutes each, then washed with xylene three times, dried, and then enclosed with VectaMountTM Mounting Medium. The resultant was subjected to observation and imaging with Keyence fluorescence microscope (BZ-9000). Results were expressed as mean+standard deviation. Dunnett's Test was used for multigroup comparison.
# [2] = test system: light irradiation model (atrophic AMD model mouse); test: Pharmacological test against AMD, light-induced AMD model mice, administration by eye drop, ONL thickness; details: 50 μL per one eye
# Description: A test was performed using a light irradiation model, which is widely employed as an atrophic AMD model mouse, as a test model.
# (§1) Male BALB/c mice (4 weeks old) were purchased from Japan SLC, Inc., and allowed to acclimate for a week before being used for experiments. Laboratory animal chow (CLEA Rodent Diet CE-2, CREA JAPAN, INC.) was used as food, and tap water was freely consumed as drinking water. The animals were raised under light and dark cycles of every 12 hours. Also all animal experiments were conducted under the approval of the Kyushu University Animal Experiment Committee.
# To BALB/c mice, Midrin P (5 mg/mL tropicamide, 5 mg/mL phenylephrine hydrochloride; Santen Pharmaceutical Co., Ltd.) as a mydriatic drug was applied to both eyes by one drop per one eye, and after 10 minutes, 0.45%, 0.75% or 1% of methyldopa that was dissolved in PBS containing 10% polyethylene glycol (PEG) 300 was administered with eye drop in 50 μL of the compound per one eye. Thereafter, the mice were irradiated with 8000 lux white light for 10 hours, then returned to under normal light and dark cycles, and raised for 6 days. On day 7, the animal was euthanized by cervical dislocation, and the eyeballs were removed.
# Frozen sections of 8 μm thickness were prepared by using the above-mentioned removed eyeballs, and subjected to hematoxylin eosin (HE) staining, and the thickness of the outer nuclear layer (ONL) was measured over 27 points every 180 μm (observation magnification: 40 times).
# The preparation was air-dried for 1 hour, fixed with acetone at room temperature for 15 minutes, then immersed in 99.5% EtOH, 80% EtOH, 70% EtOH, and purified water in this order for 3 minutes each, and stained with hematoxylin for 10 minutes. Then, it was washed with running water for 10 minutes, soaked in warm water for 1 minute, and stained with eosin for 1.5 minutes. […] The resultant was subjected to observation and imaging with Keyence fluorescence microscope (BZ-9000).
# Results were expressed as mean+standard deviation. […]
# [3] = test system: mRNA of Muller cell marker protein; test: Activity evaluation test of Muller cell (real-time PCR of retina, AMD model mice); details: oral, 1 mL/kg of 50 μM, pathological group of mice
# Excerpt: For age-related macular degeneration (AMD), the suppression activity of the test compounds against the expression amount of mRNA of a marker protein, which is used as an indicator of activity of Muller cell and is increased as a pathology is deteriorated, was examined. The present compound as test compound was methyldopa (Compound Y).
# as §1
# A method for producing age-related macular degeneration (AMD) model mice (production schedule) was prepared according to the method described in Test Example 2 (FIG. 3). […]
# For the removed retina, RNA was extracted by using ISOSPIN Cell & Tissue RNA (manufactured by Nippon Gene Co. Ltd), and cDNA was then synthesized by using ReverTra Ace™ qPCR RT master Mix (manufactured by Toyobo Co. Ltd). […] All of the test results were corrected by Gapdh mRNA amounts, and a relative quantification was carried.
# [4] = test system: mRNA of microglia marker protein; test: Activity evaluation test of microglia (real-time PCR of retina, AMD model mice); details: oral, 1 mL/kg of 50 μM, pathological group of mice
# mRNA of the complement = test: Activity evaluation test of complement (real-time PCR of retina, AMD model mice); details: oral, 1 mL/kg of 50 μM, pathological group of mice
# Description: Specifically, to 9 week olds of BALB/c mice, 1 mL/kg of 50 μM test compounds dissolved in PBS containing 10% polyethylene glycol (PEG) 300 was orally administered. A PBS solution containing 10% polyethylene glycol (PEG) 300 was used as a control. Thirty (30) minutes later, one drop of Midrin P (5 mg/mL tropicamide, 5 mg/mL phenylephrine hydrochloride; Santen Pharmaceutical Co., Ltd.) as a mydriatic drug was applied to both eyes by one drop per one eye. The mice were irradiated with 8000 lux white light for 10 hours, then returned to under normal light and dark cycles, and raised for the desirable observation periods. After the observation periods, the animal was euthanized by cervical dislocation, and the retina were removed.
# For the removed retina, RNA was extracted by using ISOSPIN Cell & Tissue RNA (manufactured by Nippon Gene Co. Ltd), and cDNA was then synthesized by using ReverTra Ace™ qPCR RT master Mix (manufactured by Toyobo Co. Ltd). The obtained cDNA was diluted with sterile water to 0.5 ng/μL, and a real-time PCR was carried out with THUNDERBIRD™ SYBR™ qPCR Mix (manufactured by Toyobo Co. Ltd). All of the test results were corrected by Gapdh mRNA amounts, and a relative quantification was carried. […]
# [5] = 50 μmol/kg, 8000 lux white light 10 hours, day 7
SMILES,"ONL thickness compared to positive control [1, 5]",ONL thickness compared to positive control ([1]; 100 μmol/kg),ONL thickness compared to positive control ([1]; 200 μmol/kg),ONL thickness compared to light irradiation case ([2]; eye drop 0.45%),ONL thickness compared to light irradiation case ([2]; eye drop 0.75%),ONL thickness compared to light irradiation case ([2]; eye drop 1%),expression amounts of mRNA in Muller cell marker protein [3],expression amounts of mRNA in microglia marker protein [4],expression amounts of mRNA in the complement (mRNA of the complement)
"CC1Cc2ccccc2N1NC(=O)c1ccc(Cl)c(S(N)(=O)=O)c1 (racemic) [indapamide, 4-Chloro-N-[(2RS)-2-methyl-2,3-dihydro-1H-indol-1-yl]-3-sulfamoyl Benzamide]",not different so much compared to that of the positive control,–,–,–,–,–,–,–,–
"CCOc1ccc2c(c1)C(C)=CC(C)(C)N2 [ethoxyquin, 6-Ethoxy-2,2,4-trimethyl-1,2-dihydroquinoline]",not different so much compared to that of the positive control,–,–,–,–,–,–,–,–
"C[C@](N)(Cc1ccc(O)c(O)c1)C(=O)O [methyldopa, Methyldopa Sesquihydrates]",–,didn't have significant difference compared to that of the positive control,didn't have significant difference compared to that of the positive control,significant thickness compared to that of the light irradiation case,significant thickness compared to that of the light irradiation case,significant thickness compared to that of the light irradiation case,suppress significantly,suppress significantly,suppress significantly
